Assay results reported in patent publication US20240262831A1, “COMPOUNDS AND USE THEREOF FOR TREATMENT OF NEURODEGENERATIVE, DEGENERATIVE AND METABOLIC DISORDERS” (VOVA IDA THERAPEUTICS, INC., priority 2020, published 2024).

System: PK1 neuroblastoma cells exposed to TPrP
Experiment: cells
Settings: Neuroblastoma cell, 96 h, read-out: TPrP EC50

**Q.** With `O=C(NCCCn1ccnc1)c1cnn2c(C(F)(F)F)cc(-c3ccccc3)nc12` [SR-229] as the compound, how does the EC50 read?
**A.** The EC50 was 0.002 µM.

**Q.** With `Cc1nccn1CCCNC(=O)c1cnn2c(=O)cc(-c3ccc4c(c3)OCO4)[nH]c12` [SR-31105] as the compound, how does the EC50 read?
**A.** The EC50 was 0.8 µM.

**Q.** Which EC50 does the source give for `CCOc1ccc(-c2cc(=O)n3ncc(C(=O)NCCCn4ccnc4C)c3[nH]2)cc1` [SR-32684] here?
**A.** The EC50 was 0.9 µM.

**Q.** Which EC50 does the source give for `CCOc1ccc(-c2cc(=S)n3ncc(C(=O)NCCCn4ccnc4C)c3[nH]2)cc1` [SR-32685] here?
**A.** Its EC50 is 0.04 µM.

**Q.** Which EC50 does the source give for `CCOc1ccc(-c2cc(=O)n3ncc(C(=O)NCCCn4ccnc4C)c3n2C)cc1` [SR-32686] here?
**A.** The EC50 was greater than 2.7 µM.

**Q.** For `CCOc1ccc(-c2cc(N3CC[C@@H](NC(C)=O)C3)n3ncc(C(=O)NCCCn4ccnc4C)c3n2)cc1` [SR-32687], which EC50 is on record?
**A.** The EC50 was less than 0.005 µM.

**Q.** Which EC50 does the source give for `CCOc1ccc(-c2cc(N3CC[C@H](NC(C)=O)C3)n3ncc(C(=O)NCCCn4ccnc4C)c3n2)cc1` [SR-32688] here?
**A.** Its EC50 is less than 0.005 µM.

**Q.** For `CCOc1ccc(-c2cc(Cl)n3ncc(C(=O)NCCCn4ccnc4C)c3n2)cc1` [SR-32689], which EC50 is on record?
**A.** The EC50 was 0.02 µM.

**Q.** For `Cc1cc(-c2ccc3c(c2)OCO3)nc2c(C(=O)NCCCn3ccnc3C)csc12` [SR-33781], which EC50 is on record?
**A.** The EC50 was less than 0.005 µM.

**Q.** For `CCSc1ccc(-c2cc(=S)n3ncc(C(=O)NCCCn4ccnc4C)c3[nH]2)cc1` [SR-34831], which EC50 is on record?
**A.** Its EC50 is 0.02 µM.

**Q.** For `CCOc1ccc(-c2cc(=S)c3scc(C(=O)NCCCn4ccnc4C)c3[nH]2)cc1` [SR-34953], which EC50 is on record?
**A.** Its EC50 is 0.006 µM.

**Q.** For `CCOc1ccc(-c2cc(=O)c3cccc(C(=O)NCCCn4ccnc4C)c3o2)cc1` [SR-35434], which EC50 is on record?
**A.** Its EC50 is 0.018 µM.

**Q.** Which EC50 does the source give for `CCOc1ccc(-c2cc(=S)c3cccc(C(=O)NCCCn4ccnc4C)c3o2)cc1` [SR-35435] here?
**A.** The EC50 was 0.054 µM.

System: not listed separately
Experiment: in vitro
Settings: mouse, tox (toxicity noted in TPrP EC50 column)

**Q.** For `CCOc1ccc(-c2cc(Cl)n3ncc(C(=O)NCCCn4ccnc4C)c3n2)cc1` [SR-32689], which EC50 is on record?
**A.** The EC50 was greater than 0.9 µM.

System: not listed separately
Experiment: Microsomal stability assay, human hepatic microsomes
Assay type: in vitro ADME
Settings: 1 mg/ml human hepatic microsomes, 37° C., half-life by LC-MS/MS
Procedure: The metabolic stability of some test compounds was determined in hepatic human and mouse microsomes. The compound was incubated with 1 mg/ml human or mouse hepatic microsomes at 37° C. with continuous shaking. Aliquots were removed at various time points between 5 minutes and 2 hours and acetonitrile was added to quench the reactions and precipitate the proteins. Samples were then centrifuged through 0.45 μm filter plates and half-lives were determined by LC-MS/MS.

**Q.** With `CCOc1ccc(-c2ccn3ccc(C(=O)NCCCn4ccnc4C)c3n2)cc1` [SR-35784] as the compound, how does the “Stability in human microsomes ≥15 minutes” value read?
**A.** The value was “Yes”.
